Assay results: paper PMC4579271, “Inflammatory Signaling by NOD-RIPK2 Is Inhibited by Clinically Relevant Type II Kinase Inhibitors” (Chemistry & Biology, 2015)

Key:
[1] = test system: NOD2-dependent TNF production in primary human monocytes; test: Flow cytometry of intracellular TNF in primary human monocytes, L18-MDP; type: cell-based
Experimental: Experimental conditions are measured in 4–5 healthy donors. […] Gray background indicates range without inhibitors. See also Figure S7.

[2] = test system: TNF production by LPS stimulation in primary human monocytes; details: 200 ng/ml LPS
RIPK1 = target: T1, RIPK1 (Homo sapiens, UniProt Q13546); set-up: method as in Najjar et al., 2015; details: ref Najjar et al., 2015; cited from earlier work
T1 sequence (Q13546 1-671): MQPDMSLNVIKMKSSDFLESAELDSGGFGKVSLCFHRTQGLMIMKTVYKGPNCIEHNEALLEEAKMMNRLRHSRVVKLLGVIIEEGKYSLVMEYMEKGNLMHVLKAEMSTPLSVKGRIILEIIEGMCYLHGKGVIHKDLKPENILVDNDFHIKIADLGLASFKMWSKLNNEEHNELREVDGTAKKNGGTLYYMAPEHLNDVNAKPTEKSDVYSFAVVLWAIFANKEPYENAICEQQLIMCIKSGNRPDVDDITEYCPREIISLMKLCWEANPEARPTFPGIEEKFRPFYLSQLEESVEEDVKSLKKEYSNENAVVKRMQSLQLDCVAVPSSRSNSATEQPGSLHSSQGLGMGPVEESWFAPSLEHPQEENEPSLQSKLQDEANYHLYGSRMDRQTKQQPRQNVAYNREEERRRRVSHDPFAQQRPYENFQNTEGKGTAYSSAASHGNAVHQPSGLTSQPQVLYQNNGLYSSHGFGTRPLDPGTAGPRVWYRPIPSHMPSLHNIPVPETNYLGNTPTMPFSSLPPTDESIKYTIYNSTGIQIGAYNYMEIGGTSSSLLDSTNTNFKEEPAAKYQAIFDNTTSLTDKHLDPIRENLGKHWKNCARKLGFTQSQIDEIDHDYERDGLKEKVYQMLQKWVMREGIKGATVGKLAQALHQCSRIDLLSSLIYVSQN

[3] = test system: phospho-Ser176-RIPK2 (p-RIPK2) in NOD2-expressing HEK293 cells; test: Western blot of phospho-Ser176-RIPK2 in HEKBlue cells after L18-MDP
[4] = test system: RAW264.7 macrophage cells; test: Cell viability and morphology, 24 hours; details: 100 nM

Cc1ccc(C(=O)Nc2ccc(CN3CCN(C)CC3)c(C(F)(F)F)c2)cc1C#Cc1cnc2cccnn12 [ponatinib, 3-[2-(imidazo[1,2-b]pyridazin-3-yl)ethynyl]-4-methyl-N-{4-[(4-methylpiperazin-1-yl)methyl]-3-(trifluoromethyl)phenyl}benzamide]
concentration completely abrogating NOD2-dependent TNF production [1]: 10 nM | concentration attenuating TNF production by LPS stimulation [2]: 1 µM | inhibition of RIPK1 kinase activity in necroptosis (RIPK1): efficient inhibitor | concentration completely blocking RIPK2 phosphorylation [3]: 10 nM | morphology of RAW cells [4]: caused rounding of RAW cells
